Molecules are shown by their SMILES. Structures can show the parent of a compound that is named as a salt.

The values below come from patent US8513161B2, “Enhancement of plant growth” (Valent Biosciences Corporation, priority 2007, dated 2013).

In the experiment the test system is sorghum. Put plainly: Field study, seed treatment of sorghum. The experiment is classed as in vivo. The following applies: for root dry weight of a sample of 10 sorghum plants: 73 days after planting, control 148.5. As for the experimental part: For the field studies, the seed was treated with a seed treatment formulation containing clothianidin. The rate of clothianidin was dependent on the crop species. The seed treatment formulations were amended with the appropriate concentrations of either PESA or the sodium salt of PESA. Crops were planted and grown under standard agricultural practices, and evaluated at the times indicated. The sodium salt of PESA was prepared as described above, and was used in seed treatment either alone or in the presence of clothianidin. Sorghum seed was treated with 0 or 200 grams of clothianidin/100 kg (220 pound) of seed and with 0, 22, 55, or 137.5 grams PESA salt/100 kg seed.

With `O=C(O)CCC(=O)NCCc1ccccc1` [PESA salt], the “root dry weight of a sample of 10 sorghum plants” value is, setting by setting: (sodium salt of PESA 22 g/100 kg seed alone) 183.5 grams; (sodium salt of PESA 55 g/100 kg seed alone) 146.5 grams; (sodium salt of PESA 137.5 g/100 kg seed alone) 141.6 grams. Moreover, the “safening of sorghum” value (conclusion from Table 10) was “safened sorghum against clothianidin-induced root growth inhibition”.
